# Laboratory results from ChEMBL document CHEMBL1201861, “Genomics of Drug Sensitity in Cancer screening data, Wellcome Trust Sanger Institute”.
# What was measured:
# COLO-792 = assay: cells; type: functional, cell-based, Homo sapiens; conditions: Homo sapiens, COLO-792
# Description: SANGER: Inhibition of human COLO-792 cell growth in a cell viability assay.
# Capan-2 = assay: cells; type: functional, cell-based, Homo sapiens; conditions: Homo sapiens, Capan-2;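 note: Capan-2 cell growth inhibition, read out with a viability assay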
# Description: SANGER: Inhibition of human Capan-2 cell growth in a cell viability assay.
# EFO-27 = assay: cells; type: functional, cell-based, Homo sapiens; conditions: Homo sapiens, EFO-27;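 note: growth inhibition of EFO-27 cells, read out with a cell viability assay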
# Description: SANGER: Inhibition of human EFO-27 cell growth in a cell viability assay.
# ESS-1 = assay: cells; type: functional, cell-based, Homo sapiens; conditions: Homo sapiens, ESS-1;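 note: growth inhibition of human ESS-1 cells, read out by a cell viability assay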
# Description: SANGER: Inhibition of human ESS-1 cell growth in a cell viability assay.
# G-402 = assay: cells; type: functional, cell-based, Homo sapiens; conditions: Homo sapiens, G-402
# Description: SANGER: Inhibition of human G-402 cell growth in a cell viability assay.
# GDM-1 = assay: cells; type: functional, cell-based, Homo sapiens; conditions: Homo sapiens, GDM-1;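 note: cell viability readout used to measure growth inhibition of human GDM-1 cells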
# Description: SANGER: Inhibition of human GDM-1 cell growth in a cell viability assay.
# HCC1569 = assay: cells; type: functional, cell-based, Homo sapiens; conditions: Homo sapiens, HCC1569;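 note: growth inhibition of human HCC1569 cells, read out with a cell viability assay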
# Description: SANGER: Inhibition of human HCC1569 cell growth in a cell viability assay.
# HCC70 = assay: cells; type: functional, cell-based, Homo sapiens; conditions: Homo sapiens, HCC70;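 note: cell viability assay measuring how strongly the compound suppresses proliferation of HCC70 cells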
# Description: SANGER: Inhibition of human HCC70 cell growth in a cell viability assay.
# HuO-3N1 = assay: cells; type: functional, cell-based, Homo sapiens; conditions: Homo sapiens, HuO-3N1;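 note: cell viability readout used to measure how strongly compounds suppress proliferation of human HuO-3N1 cells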
# Description: SANGER: Inhibition of human HuO-3N1 cell growth in a cell viability assay.
# HuP-T4 = assay: cells; type: functional, cell-based, Homo sapiens; conditions: Homo sapiens, HuP-T4;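 note: cell viability assay measuring how much HuP-T4 cell growth is inhibited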
# Description: SANGER: Inhibition of human HuP-T4 cell growth in a cell viability assay.
# IGROV-1 = assay: cells; type: functional, cell-based, Homo sapiens; conditions: Homo sapiens, IGROV-1;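 note: reduction of IGROV-1 cell growth, read out with a viability assay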
# Description: SANGER: Inhibition of human IGROV-1 cell growth in a cell viability assay.
# IM-9 = assay: SANGER: Inhibition of human IM-9 cell growth in a cell viability assay.; type: functional, cell-based; conditions: Homo sapiens, IM-9
# IST-SL2 = assay: cells; type: functional, cell-based, Homo sapiens; conditions: Homo sapiens, IST-SL2;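 note: growth inhibition of human IST-SL2 cells, read out by a cell viability assay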
# Description: SANGER: Inhibition of human IST-SL2 cell growth in a cell viability assay.
# KYSE-410 = assay: cells; type: functional, cell-based, Homo sapiens; conditions: Homo sapiens, KYSE-410;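 note: growth inhibition of KYSE-410 cells, measured through a cell viability readout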
# Description: SANGER: Inhibition of human KYSE-410 cell growth in a cell viability assay.
# LCLC-97TM1 = assay: cells; type: functional, cell-based, Homo sapiens; conditions: Homo sapiens, LCLC-97TM1;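 note: cell viability assay measuring growth inhibition of human LCLC-97TM1 cells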
# Description: SANGER: Inhibition of human LCLC-97TM1 cell growth in a cell viability assay.
# MDA-MB-157 = assay: cells; type: functional, cell-based, Homo sapiens; conditions: Homo sapiens, MDA-MB-157
# Description: SANGER: Inhibition of human MDA-MB-157 cell growth in a cell viability assay.
# MHH-CALL-2 = assay: cells; type: functional, cell-based, Homo sapiens; conditions: Homo sapiens, MHH-CALL-2;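 note: growth inhibition of the cell line, read out in a cell viability assay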
# Description: SANGER: Inhibition of human MHH-CALL-2 cell growth in a cell viability assay.
# MRK-nu-1 = assay: cells; type: functional, cell-based, Homo sapiens; conditions: Homo sapiens, MRK-nu-1;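 note: cell viability assay measuring growth suppression of human MRK-nu-1 cells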
# Description: SANGER: Inhibition of human MRK-nu-1 cell growth in a cell viability assay.
# NCI-H1417 = assay: cells; type: functional, cell-based, Homo sapiens; conditions: Homo sapiens, NCI-H1417;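 note: human NCI-H1417 cells, growth inhibition determined with a cell viability readout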
# Description: SANGER: Inhibition of human NCI-H1417 cell growth in a cell viability assay.
# NCI-H1882 = assay: cells; type: functional, cell-based, Homo sapiens; conditions: Homo sapiens, NCI-H1882;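 note: growth inhibition of the cell line, determined with a viability assay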
# Description: SANGER: Inhibition of human NCI-H1882 cell growth in a cell viability assay.
# NCI-H2141 = assay: cells; type: functional, cell-based, Homo sapiens; conditions: Homo sapiens, NCI-H2141;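 note: growth inhibition of human NCI-H2141 cells, read out with a cell viability assay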
# Description: SANGER: Inhibition of human NCI-H2141 cell growth in a cell viability assay.
# NCI-H28 = assay: cells; type: functional, cell-based, Homo sapiens; conditions: Homo sapiens, NCI-H28;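 note: growth inhibition of human NCI-H28 cells, read out as cell viability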
# Description: SANGER: Inhibition of human NCI-H28 cell growth in a cell viability assay.
# NCI-H345 = assay: cells; type: functional, cell-based, Homo sapiens; conditions: Homo sapiens, NCI-H345;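 note: growth inhibition of NCI-H345 cells measured with a cell viability assay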
# Description: SANGER: Inhibition of human NCI-H345 cell growth in a cell viability assay.
# NCI-H520 = assay: cells; type: functional, cell-based, Homo sapiens; conditions: Homo sapiens, NCI-H520;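 note: growth inhibition of NCI-H520 cells, measured by a cell viability assay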
# Description: SANGER: Inhibition of human NCI-H520 cell growth in a cell viability assay.
# NCI-H889 = assay: cells; type: functional, cell-based, Homo sapiens; conditions: Homo sapiens, NCI-H889;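 note: cell growth inhibition of the cell line, read out with a viability assay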
# Description: SANGER: Inhibition of human NCI-H889 cell growth in a cell viability assay.
# OVCAR-5 = assay: cells; type: functional, cell-based, Homo sapiens; conditions: Homo sapiens, OVCAR-5;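 note: growth inhibition of human OVCAR-5 cells, read out with a cell viability assay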
# Description: SANGER: Inhibition of human OVCAR-5 cell growth in a cell viability assay.
# P31-FUJ = assay: cells; type: functional, cell-based, Homo sapiens; conditions: Homo sapiens, P31-FUJ;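 note: growth inhibition of P31-FUJ cells, read out with a viability assay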
# Description: SANGER: Inhibition of human P31-FUJ cell growth in a cell viability assay.
# PANC-03-27 = assay: cells; type: functional, cell-based, Homo sapiens; conditions: Homo sapiens, PANC-03-27
# Description: SANGER: Inhibition of human PANC-03-27 cell growth in a cell viability assay.
# RVH-421 = assay: cells; type: functional, cell-based, Homo sapiens; conditions: Homo sapiens, RVH-421
# Description: SANGER: Inhibition of human RVH-421 cell growth in a cell viability assay.
# SK-MES-1 = assay: cells; type: functional, cell-based, Homo sapiens; conditions: Homo sapiens, SK-MES-1;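 note: growth inhibition of human SK-MES-1 cells, read out with a cell viability assay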
# Description: SANGER: Inhibition of human SK-MES-1 cell growth in a cell viability assay.
# SN12C = assay: cells; type: functional, cell-based, Homo sapiens; conditions: Homo sapiens, SN12C;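 note: growth inhibition of human SN12C cells, measured by a cell viability assay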
# Description: SANGER: Inhibition of human SN12C cell growth in a cell viability assay.
# SNU-C1 = assay: cells; type: functional, cell-based, Homo sapiens; conditions: Homo sapiens, SNU-C1;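 note: growth inhibition of SNU-C1 human cells, read out by a cell viability assay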
# Description: SANGER: Inhibition of human SNU-C1 cell growth in a cell viability assay.
# SW1463 = assay: cells; type: functional, cell-based, Homo sapiens; conditions: Homo sapiens, SW1463;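 note: growth inhibition of SW1463 cells, determined with a cell viability assay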
# Description: SANGER: Inhibition of human SW1463 cell growth in a cell viability assay.
# SW1710 = assay: cells; type: functional, cell-based, Homo sapiens; conditions: Homo sapiens, SW1710;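 note: growth inhibition of SW1710 cells, determined with a cell viability assay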
# Description: SANGER: Inhibition of human SW1710 cell growth in a cell viability assay.
# SW1990 = assay: cells; type: functional, cell-based, Homo sapiens; conditions: Homo sapiens, SW1990
# Description: SANGER: Inhibition of human SW1990 cell growth in a cell viability assay.
# SW756 = assay: cells; type: functional, cell-based, Homo sapiens; conditions: Homo sapiens, SW756;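 note: growth inhibition of human SW756 cells, read out with a cell viability assay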
# Description: SANGER: Inhibition of human SW756 cell growth in a cell viability assay.
# T-24 = assay: cells; type: functional, cell-based, Homo sapiens; conditions: Homo sapiens, T-24;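 note: growth inhibition of T-24 cells, read out with a cell viability assay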
# Description: SANGER: Inhibition of human T-24 cell growth in a cell viability assay.
# T47D = assay: cells; type: functional, cell-based, Homo sapiens; conditions: Homo sapiens, T47D;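 note: growth inhibition of human T47D cells, measured with a cell viability assay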
# Description: SANGER: Inhibition of human T47D cell growth in a cell viability assay.
# 5637 = assay: cells; type: functional, cell-based, Homo sapiens; conditions: Homo sapiens
# Description: SANGER: Inhibition of human 5637 cell growth in a cell viability assay.
# CA46 = assay: cells; type: functional, cell-based, Homo sapiens; conditions: Homo sapiens, CA46;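 note: growth inhibition of human CA46 cells, read out by a cell viability assay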
# Description: SANGER: Inhibition of human CA46 cell growth in a cell viability assay.
# CAL-12T = assay: cells; type: functional, cell-based, Homo sapiens; conditions: Homo sapiens, CAL-12T;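 note: growth inhibition of human CAL-12T cells, read out with a cell viability assay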
# Description: SANGER: Inhibition of human CAL-12T cell growth in a cell viability assay.
# CAL-54 = assay: cells; type: functional, cell-based, Homo sapiens; conditions: Homo sapiens, CAL-54;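 note: growth inhibition of CAL-54 cells, read out by a viability measurement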
# Description: SANGER: Inhibition of human CAL-54 cell growth in a cell viability assay.
# UO-31 = assay: cells; type: functional, cell-based, Homo sapiens; conditions: Homo sapiens, UO-31
# Description: SANGER: Inhibition of human U031 cell growth in a cell viability assay.
# VM-CUB-1 = assay: cells; type: functional, cell-based, Homo sapiens; conditions: Homo sapiens, VM-CUB-1;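 note: cell viability assay measuring growth inhibition of the human VM-CUB-1 cell line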
# Description: SANGER: Inhibition of human VM-CUB-1 cell growth in a cell viability assay.
# MOLT-13 = assay: cells; type: functional, cell-based, Homo sapiens; conditions: Homo sapiens, MOLT-13;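 note: IC50 for suppression of MOLT-13 cell growth, read out with a cell viability assay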
# Description: SANGER: Inhibition of human MOLT-13 cell growth in a cell viability assay.
smiles,measurement,setting,value
O=C(O)c1ccc(-c2c[nH]c3ncc(-c4ccccc4)cc23)cc1C1CCCC1 [GSK-650394],IC50,COLO-792,> 16000 nM
same,IC50,Capan-2,> 16000 nM
same,IC50,EFO-27,15400 nM
same,IC50,ESS-1,> 16000 nM
same,IC50,G-402,9130 nM
same,IC50,GDM-1,879 nM
same,IC50,HCC1569,> 16000 nM
same,IC50,HCC70,> 16000 nM
same,IC50,HuO-3N1,> 16000 nM
same,IC50,HuP-T4,8500 nM
same,IC50,IGROV-1,5290 nM
same,IC50,IM-9,> 16000 nM
same,IC50,IST-SL2,4830 nM
same,IC50,KYSE-410,> 16000 nM
same,IC50,LCLC-97TM1,1370 nM
same,IC50,MDA-MB-157,> 16000 nM
same,IC50,MHH-CALL-2,> 16000 nM
same,IC50,MRK-nu-1,7050 nM
same,IC50,NCI-H1417,> 16000 nM
same,IC50,NCI-H1882,> 16000 nM
same,IC50,NCI-H2141,> 16000 nM
same,IC50,NCI-H28,> 16000 nM
same,IC50,NCI-H345,> 16000 nM
same,IC50,NCI-H520,> 16000 nM
same,IC50,NCI-H889,> 16000 nM
same,IC50,OVCAR-5,> 16000 nM
same,IC50,P31-FUJ,> 16000 nM
same,IC50,PANC-03-27,> 16000 nM
same,IC50,RVH-421,> 16000 nM
same,IC50,SK-MES-1,16000 nM
same,IC50,SN12C,> 16000 nM
same,IC50,SNU-C1,> 16000 nM
same,IC50,SW1463,> 16000 nM
same,IC50,SW1710,2700 nM
same,IC50,SW1990,> 16000 nM
same,IC50,SW756,> 16000 nM
same,IC50,T-24,> 16000 nM
same,IC50,T47D,> 16000 nM
same,IC50,5637,3210 nM
same,IC50,CA46,> 16000 nM
same,IC50,CAL-12T,2710 nM
same,IC50,CAL-54,> 16000 nM
same,IC50,UO-31,> 16000 nM
same,IC50,VM-CUB-1,> 16000 nM
CC(=O)O[C@H]1C(=O)[C@@]2(C)[C@H]([C@H](OC(=O)c3ccccc3)[C@]3(O)C[C@H](OC(=O)[C@H](O)[C@@H](NC(=O)c4ccccc4)c4ccccc4)C(C)=C1C3(C)C)[C@]1(OC(C)=O)CO[C@@H]1C[C@@H]2O [PACLITAXEL],IC50,GDM-1,> 102 nM
same,IC50,IM-9,> 102 nM
same,IC50,IST-SL2,42.7 nM
same,IC50,MHH-CALL-2,35.6 nM
same,IC50,MOLT-13,16.4 nM
same,IC50,MRK-nu-1,2.99 nM
same,IC50,NCI-H1417,> 102 nM
same,IC50,NCI-H1882,64.2 nM
same,IC50,NCI-H2141,81 nM
same,IC50,NCI-H345,> 102 nM
same,IC50,NCI-H889,55.9 nM
same,IC50,P31-FUJ,> 102 nM
same,IC50,SNU-C1,> 102 nM
same,IC50,CA46,> 102 nM
COc1cccc2c1C(=O)c1c(O)c3c(c(O)c1C2=O)C[C@@](O)(C(=O)CO)C[C@@H]3O[C@H]1C[C@H](N)[C@H](O)[C@H](C)O1 [DOXORUBICIN],IC50,COLO-792,> 1020 nM
same,IC50,Capan-2,898 nM
same,IC50,EFO-27,97.4 nM
same,IC50,ESS-1,11.1 nM
same,IC50,G-402,99.1 nM
same,IC50,GDM-1,160 nM
same,IC50,HCC1569,109 nM
same,IC50,HCC70,> 1020 nM
same,IC50,HuO-3N1,> 1020 nM
same,IC50,HuP-T4,52.2 nM
same,IC50,IGROV-1,7.2 nM
same,IC50,IM-9,51.4 nM
same,IC50,IST-SL2,73.8 nM
same,IC50,KYSE-410,103 nM
same,IC50,LCLC-97TM1,11.8 nM
same,IC50,MDA-MB-157,499 nM
same,IC50,MHH-CALL-2,359 nM
same,IC50,MRK-nu-1,43.7 nM
same,IC50,NCI-H1417,370 nM
same,IC50,NCI-H1882,215 nM
same,IC50,NCI-H2141,574 nM
same,IC50,NCI-H28,> 1020 nM
same,IC50,NCI-H345,> 1020 nM
same,IC50,NCI-H520,267 nM
same,IC50,NCI-H889,> 1020 nM
same,IC50,OVCAR-5,117 nM
same,IC50,P31-FUJ,> 1020 nM
same,IC50,PANC-03-27,28.2 nM
same,IC50,RVH-421,169 nM
same,IC50,SK-MES-1,31.5 nM
same,IC50,SN12C,395 nM
same,IC50,SNU-C1,> 1020 nM
same,IC50,SW1463,> 1020 nM
same,IC50,SW1710,17.4 nM
same,IC50,SW1990,202 nM
same,IC50,SW756,275 nM
same,IC50,T-24,245 nM
same,IC50,T47D,470 nM
same,IC50,5637,31.9 nM
same,IC50,CA46,137 nM
same,IC50,CAL-12T,20.6 nM
same,IC50,CAL-54,301 nM
same,IC50,UO-31,354 nM
same,IC50,VM-CUB-1,75.4 nM
C=C(c1ccc(C(=O)O)cc1)c1cc2c(cc1C)C(C)(C)CCC2(C)C [BEXAROTENE],IC50,COLO-792,> 8000 nM
same,IC50,Capan-2,> 8000 nM
same,IC50,EFO-27,> 8000 nM
same,IC50,ESS-1,> 8000 nM
same,IC50,G-402,> 8000 nM
same,IC50,GDM-1,> 8000 nM
same,IC50,HCC1569,> 8000 nM
same,IC50,HCC70,> 8000 nM
same,IC50,HuO-3N1,> 8000 nM
same,IC50,HuP-T4,> 8000 nM
same,IC50,IGROV-1,> 8000 nM
same,IC50,IM-9,> 8000 nM
same,IC50,IST-SL2,> 8000 nM
same,IC50,KYSE-410,> 8000 nM
same,IC50,LCLC-97TM1,> 8000 nM
same,IC50,MDA-MB-157,> 8000 nM
same,IC50,MHH-CALL-2,> 8000 nM
same,IC50,MRK-nu-1,> 8000 nM
same,IC50,NCI-H1417,> 8000 nM
same,IC50,NCI-H1882,> 8000 nM
same,IC50,NCI-H2141,> 8000 nM
same,IC50,NCI-H28,> 8000 nM
same,IC50,NCI-H345,> 8000 nM
same,IC50,NCI-H520,> 8000 nM
same,IC50,NCI-H889,> 8000 nM
same,IC50,OVCAR-5,> 8000 nM
same,IC50,P31-FUJ,> 8000 nM
same,IC50,PANC-03-27,> 8000 nM
same,IC50,RVH-421,> 8000 nM
same,IC50,SK-MES-1,> 8000 nM
same,IC50,SN12C,> 8000 nM
same,IC50,SNU-C1,> 8000 nM
same,IC50,SW1463,> 8000 nM
same,IC50,SW1710,> 8000 nM
same,IC50,SW1990,> 8000 nM
same,IC50,SW756,> 8000 nM
same,IC50,T-24,> 8000 nM
same,IC50,T47D,> 8000 nM
same,IC50,5637,> 8000 nM
same,IC50,CA46,> 8000 nM
same,IC50,CAL-12T,3960 nM
same,IC50,CAL-54,> 8000 nM
same,IC50,UO-31,> 8000 nM
same,IC50,VM-CUB-1,> 8000 nM
